Patent US20060205692A1, “1,1-and 1,2-Bisphosphonates as apoliprotein e modulators” (priority 2002, published 2006)

Tested on: ApoE
Experiment: apoE secretion by PMA-differentiated THP-1 cells, apoE quantified by ELISA
Type: cell-based, human
Conditions: 3 days; for percent change in apoE secretion versus control at 25 µM / percent change in apoE secretion versus control at 50 µM / percent change in apoE secretion versus control at 100 µM: Homo sapiens, THP-1, 72 h
Excerpt: The bisphosphonate compounds of the invention can modulate (increase or decrease) apoE levels in plasma and in tissues. The activities of the compounds can be determined in an in vitro cell assay comprising determining the modulatory effect of the test compound on the secretion of apoE by an apoE secreting cell line (e.g., a monocyte-macrophage cell line such as the THP-1 cell line, a liver derived cell line such as the HepG2 cell line, an intestinal derived cell line such as the CaCo2 cell line or a brain derived cell line such as the astrocytoma CCF-STTG1 cell line).
THP-1 cell line (ATCC TIB-202) are cultured in RPMI 1640 (with 2 mM of L-glutamine and 2 g/l of glucose, Invitrogen) supplemented with 2 g/l of sodium hydrogen carbonate (Fluka), 10 U/ml of penicillin, 10 μg/ml of streptomycin (Penicillin-Streptomycin, Invitrogen), 20 μM of 2-mercaptoethanol (Fluka) and 10% FCS (Amimed). Cells are incubated at 37° C. and 5% CO2.
Cells are seeded in 24 well tissue culture plates (Falcon), 2×10^5 cells in 500 μl of culture medium per well or 6 well plates for RT-PCR purpose, 1×10^6 cells in 2.5 ml of medium. PMA (Phorbol 12-myristate 13-acetate, Alexis), (stock in DMSO (Fluka) at 1 mg/ml) and other compounds are diluted in ethanol and added to the cells at an ethanol final concentration not exceeding 1%. Same volume of ethanol is added in controls. Plates are incubated for 3 days at 37° C. and 5% CO2 to allow cell differentiation and apoE secretion.
Medium contained in the wells is harvested and centrifuged 5 min at 1200 rpm. Supernatants are store at −20° C. until apoE quantification. The cell pellets are resuspended in PBS and counted with a ZI Coulter Counter. After a wash with PBS, adherent cells in the well bottoms are detached with trypsin-EDTA solution 10× (Invitrogen) diluted in PBS. The reaction is stopped with the addition of culture medium and the detached cells are counted.
ApoE was quantified by ELISA. 96 well plates (Costar) are coated with 5% of gelatine (from porcine skin, Fluka) in carbonate-bicarbonate buffer (Sigma) for 1 hour at 37° C. After removing the coating solution, 100 μl of THP-1 supernatant are added per well, diluted 5 times in buffer (PBS, 1% Top-Block (Juro), 0.1% Tween 20 (Fluka)). The incubation last 1 hour at 37° C., then the wells are washed 3 times with 200 μl of buffer. Plates are incubated for 1 hour at 37° C. with continuous stirring with the primary antibody (goat anti-human apoE IgG, Calbiochem) at a 10000-time dilution in buffer, 100 μl per well. After 3 washes, plates are incubated with the secondary antibody (rabbit anti-goat-IgG peroxidase conjugated, Sigma) diluted 5000 times, 100 μl per well, at 37° C. with shaking. Then the wells are washed 5 more times and the detection is achieved by adding 100 μl per well of o-phenylenediamine dihydrochloride (Sigma) and incubated for 15-20 minutes with shaking at room temperature. When the appropriated colour is reached, the reaction is stopped by adding 50 μl per well of 3 M sulfuric acid (Fluka) with shaking for 1 minute at room temperature. The absorbance is read at 492 nm versus 620 nm with a microplate photometer (Anthos Reader 2001).

Row | Structure (SMILES) | % ApoE Change (compound 25 μM, 1.25 nM PMA) [%] | % ApoE Change (compound 25 μM, 2.5 nM PMA) [%] | % ApoE Change (compound 50 μM, 1.25 nM PMA) [%] | % ApoE Change (compound 50 μM, 2.5 nM PMA) [%] | % ApoE Change (compound 100 μM, 1.25 nM PMA) [%] | % ApoE Change (compound 100 μM, 2.5 nM PMA) [%] | percent change in apoE secretion versus control at 25 µM (compound 25 μM, 2.5 nM PMA) [%] | percent change in apoE secretion versus control at 50 µM (compound 50 μM, 2.5 nM PMA) [%] | further results
1 | CCOP(=O)(OCC)C(c1ccc(OCCN2CCCC2)cc1)P(=O)(OCC)OCC [Tetraethyl 1-[4-(2-N-pyrrolidino-ethoxy)-phenyl]-methylidene-1,1-bisphosphonate] | −5 | 2 | 2 | 7 | 56 | 32 |  |  | 
2 | CCOP(=O)(CC(c1ccc(OCCN(C)c2ccccn2)cc1)P(=O)(OCC)OCC)OCC (stereo not shown) [Tetraethyl 1-{4-[2-(methyl-pyridin-2-yl-amino)ethoxy]-phenyl}-ethylidene-1,2-bisphosphonate] |  |  |  |  |  |  | 110 | 124 | percent change in apoE secretion versus control at 25 µM (compound 25 μM, 1.25 nM PMA): 77%; percent change in apoE secretion versus control at 50 µM (compound 50 μM, 1.25 nM PMA): 202%; percent change in apoE secretion versus control at 100 µM (compound 100 μM, 1.25 nM PMA): 569%; percent change in apoE secretion versus control at 100 µM (compound 100 μM, 2.5 nM PMA): 206%
3 | CCOP(=O)(OCC)C(c1ccc(OCCCN(C)c2ccccn2)cc1)P(=O)(OCC)OCC [Tetraethyl 1-{4-[3-(methyl-pyridin-2-yl-amino)-propoxy]-phenyl}-methylidene-1,1-bisphosphonate] |  |  |  |  |  |  | 557 |  | percent change in apoE secretion versus control at 25 µM (compound 25 μM, 1.25 nM PMA): 375%
4 | CCOP(=O)(CC(c1cccc(OCCc2ccccn2)c1)P(=O)(OCC)OCC)OCC (stereo not shown) [Tetraethyl 1-[3-(2-pyridin-2-yl-ethoxy)-phenyl]-ethylidene-1,2-bisphosphonate] |  |  |  |  |  |  | 110 | 124 | percent change in apoE secretion versus control at 25 µM (compound 25 μM, 1.25 nM PMA): 31%; percent change in apoE secretion versus control at 50 µM (compound 50 μM, 1.25 nM PMA): 51%; percent change in apoE secretion versus control at 100 µM (compound 100 μM, 1.25 nM PMA): 274%; percent change in apoE secretion versus control at 100 µM (compound 100 μM, 2.5 nM PMA): 206%
5 | CCOP(=O)(OCC)C(c1ccc(OCCN2CCCCC2)cc1)P(=O)(OCC)OCC [Tetraethyl 1-[4-(2-N-piperidino-ethoxy)-phenyl]-methylidene-1,1-bisphosphonate] | −22 | −2 | 6 | 0 | 65 | 33 |  |  | 
6 | CCOP(=O)(OCC)C(c1ccc(OCCN2CCOCC2)cc1)P(=O)(OCC)OCC [Tetraethyl 1-[4-(2-N-morpholino-ethoxy)-phenyl]-methylidene-1,1-bisphosphonate] | −17 | −20 | −8 | −27 | 43 | −3 |  |  | 
7 | CCOP(=O)(CC(c1ccc(OCCCN2C(=O)c3ccccc3C2=O)cc1)P(=O)(OCC)OCC)OCC (stereo not shown) [Tetraethyl 1-[4-(3-N-phthalimidopropoxy)phenyl]-ethylidene-1,2-bisphosphonate] |  |  |  |  |  |  | 644 | 942 | 
8 | CCOP(=O)(OCC)C(c1ccc(OCCCN2C(=O)c3ccccc3C2=O)cc1)P(=O)(OCC)OCC [Tetraethyl 1-[4-(3-N-phthalimido-propoxy)-phenyl]-methylidene-1,1-bisphosphonate] |  |  |  |  |  |  | 352 | 405 | percent change in apoE secretion versus control at 100 µM (compound 100 μM, 2.5 nM PMA): 482%
9 | CCOP(=O)(OCC)C(c1ccc(OCCCc2cccnc2)cc1)P(=O)(OCC)OCC [Tetraethyl 1-[4-(3-pyridin-3-yl-propoxy)-phenyl]-methylidene-1,1-bisphosphonate] | 63 | 136 | 103 | 188 | 337 | 331 |  |  | 
10 | CCOP(=O)(OCC)C(c1ccc(OCCCO)cc1)P(=O)(OCC)OCC [Tetraethyl 1-[4(3-hydroxy-propoxy)-phenyl]-methylidene-1,1-bisphosphonate] |  |  |  |  |  |  | -15 | -16 | percent change in apoE secretion versus control at 25 µM (compound 25 μM, 1.25 nM PMA): -27%; percent change in apoE secretion versus control at 50 µM (compound 50 μM, 1.25 nM PMA): -21%; percent change in apoE secretion versus control at 100 µM (compound 100 μM, 1.25 nM PMA): 20%; percent change in apoE secretion versus control at 100 µM (compound 100 μM, 2.5 nM PMA): 0%
11 | CCOc1ccc(C(CP(=O)(OCC)OCC)P(=O)(OCC)OCC)cc1 (stereo not shown) [Tetraethyl 1-(4-ethoxyphenyl)-ethylidene-1,2-bisphosphonate] | −16 | 5 | −12 | 4 | 36 | 54 |  |  | 
12 | CCOP(=O)(OCC)C(c1ccc(OCc2ccccn2)cc1)P(=O)(OCC)OCC [Tetraethyl 1-[4-(pyridin-2-yl-methoxy)-phenyl]-methylidene-1,1-bisphosphonate] | 16 | 96 | 146 | 192 | 443 | 574 |  |  | 
13 | CCOP(=O)(OCC)C(c1ccc(OCCc2ccccn2)cc1)P(=O)(OCC)OCC [Tetraethyl 1-[4-(2-pyridin-2-yl-ethoxy)-phenyl]-methylidene-1,1-bisphosphonate] | 57 | 38 | 133 | 73 | 363 | 145 |  |  | 
14 | CCOP(=O)(CC(c1ccc(OCc2ccccn2)cc1)P(=O)(OCC)OCC)OCC (stereo not shown) [Tetraethyl 1-[4-(pyridin-2-yl-methoxy)-phenyl]-ethylidene-1,2-bisphosphonate] |  | 152 |  | 158 |  | 289 |  |  | 
15 | CCOP(=O)(OCC)C(c1ccc(OC/C=C(\C)CC/C=C(\C)CCC=C(C)C)cc1)P(=O)(OCC)OCC [Tetraethyl 1-[4-(trans, trans-3,7,11-trimethyl-dodeca-2,6,10-trienyloxy)-phenyl]-methylidene-1,1-bisphosphonate] |  |  |  |  |  |  |  |  | % ApoE Change (compound 2.5 μM, 1.25 nM PMA): 14%; % ApoE Change (compound 2.5 μM, 2.5 nM PMA): 27%; % ApoE Change (compound 5.0 μM, 1.25 nM PMA): 46%; % ApoE Change (compound 5.0 μM, 2.5 nM PMA): 47%; % ApoE Change (compound 10 μM, 1.25 nM PMA): 31%; % ApoE Change (compound 10 μM, 2.5 nM PMA): 40%
16 | CCOP(=O)(OCC)C(c1ccc(O)cc1)P(=O)(OCC)OCC [Tetraethyl 1-(4-hydroxy-phenyl)-methylidene-1,1-bisphosphonate] |  |  |  |  |  |  | -3 | -9 | percent change in apoE secretion versus control at 25 µM (compound 25 μM, 1.25 nM PMA): -13%; percent change in apoE secretion versus control at 50 µM (compound 50 μM, 1.25 nM PMA): 26%; percent change in apoE secretion versus control at 100 µM (compound 100 μM, 1.25 nM PMA): 125%; percent change in apoE secretion versus control at 100 µM (compound 100 μM, 2.5 nM PMA): 60%
17 | CCOP(=O)(OCC)C(c1ccc(OCCN2C(=O)CCC2=O)cc1)P(=O)(OCC)OCC [Tetraethyl 1-[4-(2-N-succinimido-ethoxy)-phenyl]-methylidene-1,1-bisphosphonate] | −51 | 30 | 53 | 70 | 123 | 132 |  |  | 
18 | COP(=O)(OC)C(c1ccc(O)cc1)P(=O)(OC)OC [Tetramethyl 1-(4-hydroxy-phenyl)methylidene-1,1-bisphosphonate] | −7 | −17 | −27 | −25 | −19 | −10 |  |  | 
